Data as given in patent US20220117938A1, “COMBINATON THERAPY WITH A DON PRODRUG AND AN IMMUNE CHECKPOINT INHIBITOR” (DRACEN PHARMACEUTICALS, INC., priority 2019, published 2022).

Columns and labels:
4T1 tumors = assay: Anti-tumor efficacy of Compound 1 with and without anti-PD-1 in the 4T1 murine mammary cancer model (Example 2A); assay type: in vivo, Mus musculus; details: for Tumor volume (mm^3), Mean ± SEM: n = 8; for ILS (%) / MST: endpoint tumor volume 2000 mm^3; for RTV at day 25 / T/C (%) / TGI (%) / Tumor Size (mm^3) at day 25, Mean ± SEM: day 25
Procedure: Female BALB/c mice were inoculated subcutaneously at the mammary fat pat with 4T1 cells for tumor development. Six days after tumor inoculation, 48 mice with tumor size ranging from 49-88 mm^3 (average tumor size 59 mm^3) were selected and assigned into 6 groups using stratified randomization with 8 mice per group based upon their tumor volumes. The treatments were started from the day of randomization (defined as D0), Group 1 was treated with Vehicle (Tween 80:Ethanol:Saline—5:5:90 v/v/v), s.c. q.d.×14, Group 2 was treated with anti-PD-1 10 mg/kg i.p. q4d×4, Group 3 was treated with Compound 1 3 mg/kg s.c. q.d.×5D followed by 1 mg/kg s.c. q.d.×9D, Group 4 was treated with Compound 13 mg/kg s.c. q.d.×5D followed by 1 mg/kg s.c. q.d.×9D+anti-PD-1 10 mg/kg i.p. q4d×4, Group 5 was treated with Compound 11 mg/kg s.c. q.d.×14D and Group 6 was treated with Compound 11 mg/kg s.c. q.d.×14D+anti-PD-1 10 mg/kg i.p. q4d×4. The tumor sizes were measured three times per week during the treatment. The entire study was terminated on D42 after start of the treatment. In this study anti mPD-1 (catalog number BE0146) was used.
Animal Species: Mus musculus; Strain: BALB/c; Age: 6-8 weeks; Sex: female; Body weight (at treatment start): 20-24 g.
The 4T1 tumor cells were maintained in vitro as a monolayer culture in RPMI-1640 medium supplemented with 10% heat inactivated fetal bovine serum and 100 μg/mL penicillin streptomycin at 37° C. in an atmosphere of 5% CO2 in air. The tumor cells were routinely subcultured twice weekly by trypsin-EDTA treatment. The cells growing to a confluency around 70%-80% were harvested and counted for tumor inoculation. The cultured 4T1 cells were harvested, re-suspended in base medium at a density of 2×10^6 cells/mL with viability >90%. Each mouse was inoculated subcutaneously at the […] with 1×10^5 in 0.05 ml base medium for tumor development.
The treatments were started on day 6 after tumor inoculation when the tumor size reached 49-88 mm^3 (average tumor size 59 mm^3). Each group consisted of 8 tumor bearing mice. The testing article was administrated at the dosing volume indicated to the mice according to the predetermined regimen as shown Table 2A-1. Testing article formulations were prepared according to standard procedures. Details regarding tumor measurements and endpoints, and statistical analysis are provided in EXAMPLE 3.
Tumor sizes were measured three times a week in two dimensions using a caliper, and the volume expressed in mm^3 using the formula: V=0.5 a×b^2 where a and b are the long and short diameters of the tumor, respectively. The tumor sizes were then used for the calculations of both tumor growth inhibition (TGI) and T/C values.
TGI is calculated for each group using the formula: […]
TVTreatment_DayN is the average tumor volume of a treatment group on a given day, TVTreatment_Day0 is the average tumor volume of the treatment group on the first day of treatment, TVVehicle_DayN is the average tumor volume of the vehicle control group on a given day, and TVVehicle_Day0 is the average tumor volume of the vehicle group on the first day of treatment.
The T/C value (in percent) is an indication of antitumor effectiveness, T/C (%)=RTVTreatment/RTVControl×100% (RTVTreatment: the mean RTV of the treatment group; RTVControl: the mean RTV of the vehicle treated group). RTV (relative tumor volume)=TVDayN/TVDay0. TVDayN and TVDay0 is the tumor volume on day N and Day 0 respectively. T/C (%)≤42% is considered as significant antitumor activity and <10% is considered as highly significant antitumor activity by the National Cancer Institute criteria.
Animal survival curve: When an individual animal reached to the termination endpoint (TV>2000 mm^3), the mouse was euthanized. The time from treatment initiation to the termination was deemed as its survival time. Survival curve was plotted by Kaplan-Meier method. Median survival time (MST) was calculated for each group. […]

HCT116 tumors = assay: Anti-tumor efficacy of Compound 1 in the HCT116 xenograft model (Example 12); assay type: in vivo, mice
Procedure: Female BALB/c nude mice were inoculated subcutaneously in the right flank with HCT116 cells for tumor development. Nine days after tumor inoculation, mice with tumor sizes ranging from 90-260 mm^3 (average tumor size 155 mm^3) were selected and assigned into groups using stratified randomization with 8 mice per group based upon their tumor volumes. The treatments were started from the day of randomization (defined as D0), Group 1 was treated with Vehicle control, 10 ml/kg, IP, bid×21; Group 4 was treated with Compound 1, 1.4 mg/kg, SC, 5d ON, 2 d OFF×3 cycles; and Group 5 was treated with Compound 1, 3.3 mg/kg, IV, tiw, (Thu, Sat, Mon)×3 cycles. The tumor sizes were measured two times per week during the treatment. The entire study was terminated on D18 after start of the treatment. All treatments were well-tolerated without any adverse effects or significant body weight loss.

[1] = Group 4, 1.4 mg/kg SC 5 d ON 2 d OFF x3 cycles
[2] = Group 4, 1.4 mg/kg SC 5 d ON 2 d OFF x3 cycles, day 11
[3] = Group 5, 3.3 mg/kg IV tiw x3 cycles
[4] = Group 5, 3.3 mg/kg IV tiw x3 cycles, day 11

For CC(=O)N[C@@H](Cc1c[nH]c2ccccc12)C(=O)N[C@@H](CCC(=O)C=[N+]=[N-])C(=O)OC(C)C [Compound 1, Isopropyl (S)-2-((S)-2-acetamido-3-(1H-indol-3-yl)propanamido)-6-diazo-5-oxohexanoate], the “Tumor volume (mm^3), Mean ± SEM” value (4T1 tumors; 1 mg/kg qdx14 s.c., Day 0) was 58 ± 3 mm^3, the “Tumor volume (mm^3), Mean ± SEM” value (4T1 tumors; 1 mg/kg qdx14 s.c., Day 2) was 75 ± 4 mm^3 and the “Tumor volume (mm^3), Mean ± SEM” value (4T1 tumors; 1 mg/kg qdx14 s.c., Day 4) was 85 ± 4 mm^3. For the same molecule, the “Tumor volume (mm^3), Mean ± SEM” value (4T1 tumors; 1 mg/kg qdx14 s.c., Day 7) was 108 ± 4 mm^3, the “Tumor volume (mm^3), Mean ± SEM” value (4T1 tumors; 1 mg/kg qdx14 s.c., Day 9) was 130 ± 10 mm^3 and the “Tumor volume (mm^3), Mean ± SEM” value (4T1 tumors; 1 mg/kg qdx14 s.c., Day 11) was 158 ± 12 mm^3. For the same molecule, the “Tumor volume (mm^3), Mean ± SEM” value (4T1 tumors; 1 mg/kg qdx14 s.c., Day 14) was 172 ± 11 mm^3, the “Tumor volume (mm^3), Mean ± SEM” value (4T1 tumors; 1 mg/kg qdx14 s.c., Day 16) was 215 ± 17 mm^3 and the “Tumor volume (mm^3), Mean ± SEM” value (4T1 tumors; 1 mg/kg qdx14 s.c., Day 18) was 300 ± 23 mm^3. For the same molecule, the “Tumor volume (mm^3), Mean ± SEM” value (4T1 tumors; 1 mg/kg qdx14 s.c., Day 21) was 441 ± 31 mm^3, the “Tumor volume (mm^3), Mean ± SEM” value (4T1 tumors; 1 mg/kg qdx14 s.c., Day 23) was 622 ± 44 mm^3 and the “Tumor volume (mm^3), Mean ± SEM” value (4T1 tumors; 1 mg/kg qdx14 s.c., Day 25) was 782 ± 53 mm^3. For the same molecule, the “Tumor volume (mm^3), Mean ± SEM” value (4T1 tumors; 3 mg/kg qdx5 then 1 mg/kg qdx9 s.c., Day 0) was 59 ± 3 mm^3, the “Tumor volume (mm^3), Mean ± SEM” value (4T1 tumors; 3 mg/kg qdx5 then 1 mg/kg qdx9 s.c., Day 2) was 72 ± 4 mm^3 and the “Tumor volume (mm^3), Mean ± SEM” value (4T1 tumors; 3 mg/kg qdx5 then 1 mg/kg qdx9 s.c., Day 4) was 76 ± 3 mm^3. For the same molecule, the “Tumor volume (mm^3), Mean ± SEM” value (4T1 tumors; 3 mg/kg qdx5 then 1 mg/kg qdx9 s.c., Day 7) was 80 ± 3 mm^3, the “Tumor volume (mm^3), Mean ± SEM” value (4T1 tumors; 3 mg/kg qdx5 then 1 mg/kg qdx9 s.c., Day 9) was 88 ± 6 mm^3 and the “Tumor volume (mm^3), Mean ± SEM” value (4T1 tumors; 3 mg/kg qdx5 then 1 mg/kg qdx9 s.c., Day 11) was 113 ± 9 mm^3. For the same molecule, the “Tumor volume (mm^3), Mean ± SEM” value (4T1 tumors; 3 mg/kg qdx5 then 1 mg/kg qdx9 s.c., Day 14) was 171 ± 12 mm^3, the “Tumor volume (mm^3), Mean ± SEM” value (4T1 tumors; 3 mg/kg qdx5 then 1 mg/kg qdx9 s.c., Day 16) was 245 ± 17 mm^3 and the “Tumor volume (mm^3), Mean ± SEM” value (4T1 tumors; 3 mg/kg qdx5 then 1 mg/kg qdx9 s.c., Day 18) was 356 ± 27 mm^3. The “Tumor volume (mm^3), Mean ± SEM” value (4T1 tumors; 3 mg/kg qdx5 then 1 mg/kg qdx9 s.c., Day 21) was 565 ± 37 mm^3, the “Tumor volume (mm^3), Mean ± SEM” value (4T1 tumors; 3 mg/kg qdx5 then 1 mg/kg qdx9 s.c., Day 23) was 762 ± 62 mm^3 and the “Tumor volume (mm^3), Mean ± SEM” value (4T1 tumors; 3 mg/kg qdx5 then 1 mg/kg qdx9 s.c., Day 25) was 1024 ± 75 mm^3. The “ILS (%)” value (4T1 tumors; Compound 1 1 mg/kg) was 13.8%, the “MST” value (4T1 tumors; Compound 1 1 mg/kg) was 33.0 days and the “ILS (%)” value (4T1 tumors; Compound 1 3/1 mg/kg) was 19.0%. For the same molecule, the “MST” value (4T1 tumors; Compound 1 3/1 mg/kg) was 34.5 days, the “RTV at day 25” value (4T1 tumors; Cpd. 1 1 mg/kg) was 13.65 ± 1.13 and the “T/C (%)” value (4T1 tumors; Cpd. 1 1 mg/kg) was 46.10%. The “TGI (%)” value (4T1 tumors; Cpd. 1 1 mg/kg) was 53.9%, the “Tumor Size (mm^3) at day 25, Mean ± SEM” value (4T1 tumors; Cpd. 1 1 mg/kg) was 782 ± 53 mm^3 and the “RTV at day 25” value (4T1 tumors; Cpd. 1 3/1 mg/kg) was 17.45 ± 0.83. For the same molecule, the “T/C (%)” value (4T1 tumors; Cpd. 1 3/1 mg/kg) was 58.95%, the “TGI (%)” value (4T1 tumors; Cpd. 1 3/1 mg/kg) was 41.05% and the “Tumor Size (mm^3) at day 25, Mean ± SEM” value (4T1 tumors; Cpd. 1 3/1 mg/kg) was 1024 ± 75 mm^3. The “RTV at day 11” value (HCT116 tumors; [1]) was 4.061 ± 0.33, the “Tumor Size at day 11” value (HCT116 tumors; [1]) was 602 ± 72 mm^3 and the Tumor volume (HCT116 tumors; Group 4, 1.4 mg/kg SC 5 d ON 2 d OFF x3 cycles, day 0) was 155 ± 19 mm^3. The Tumor volume (HCT116 tumors; Group 4, 1.4 mg/kg SC 5 d ON 2 d OFF x3 cycles, day 4) was 227 ± 39 mm^3, the Tumor volume (HCT116 tumors; Group 4, 1.4 mg/kg SC 5 d ON 2 d OFF x3 cycles, day 7) was 294 ± 53 mm^3 and the T/C (HCT116 tumors; [2]) was 52.25%. It also gave a TGI (HCT116 tumors; [2]) of 53.92%, a Tumor volume (HCT116 tumors; [2]) of 602 ± 72 mm^3 and a Tumor volume (HCT116 tumors; Group 4, 1.4 mg/kg SC 5 d ON 2 d OFF x3 cycles, day 14) of 964 ± 176 mm^3. The “RTV at day 11” value (HCT116 tumors; [3]) was 3.70 ± 0.45, the “Tumor Size at day 11” value (HCT116 tumors; [3]) was 571 ± 82 mm^3 and the Tumor volume (HCT116 tumors; Group 5, 3.3 mg/kg IV tiw x3 cycles, day 0) was 156 ± 19 mm^3. For the same molecule, the Tumor volume (HCT116 tumors; Group 5, 3.3 mg/kg IV tiw x3 cycles, day 4) was 188 ± 23 mm^3, the Tumor volume (HCT116 tumors; Group 5, 3.3 mg/kg IV tiw x3 cycles, day 7) was 378 ± 60 mm^3 and the T/C (HCT116 tumors; [4]) was 48.17%. For the same molecule, the TGI (HCT116 tumors; [4]) was 57.23%, the Tumor volume (HCT116 tumors; [4]) was 571 ± 82 mm^3 and the Tumor volume (HCT116 tumors; Group 5, 3.3 mg/kg IV tiw x3 cycles, day 14) was 861 ± 134 mm^3. The Tumor volume (HCT116 tumors; Group 5, 3.3 mg/kg IV tiw x3 cycles, day 18) was 1354 ± 204 mm^3.
